From patent US11597708B2, “Inhibitors of heat shock factors and uses thereof” (HSF Pharmaceuticals SA, priority 2016, dated 2023)

Columns and labels:
HSF1 = target: T1, HSF1 (Homo sapiens, UniProt Q00613); test: Z74 cell-based reporter assay: heat-induced RLuc expression controlled by endogenous HSF1; details: Z74 cells
T1 construct: functionally linked to an hsp70b promoter and therefore controlled by endogenous HSF1; endogenous in cells; host or cells: HeLa cells / HeLa-derived cell line Z74
T1 sequence (Q00613 1-529): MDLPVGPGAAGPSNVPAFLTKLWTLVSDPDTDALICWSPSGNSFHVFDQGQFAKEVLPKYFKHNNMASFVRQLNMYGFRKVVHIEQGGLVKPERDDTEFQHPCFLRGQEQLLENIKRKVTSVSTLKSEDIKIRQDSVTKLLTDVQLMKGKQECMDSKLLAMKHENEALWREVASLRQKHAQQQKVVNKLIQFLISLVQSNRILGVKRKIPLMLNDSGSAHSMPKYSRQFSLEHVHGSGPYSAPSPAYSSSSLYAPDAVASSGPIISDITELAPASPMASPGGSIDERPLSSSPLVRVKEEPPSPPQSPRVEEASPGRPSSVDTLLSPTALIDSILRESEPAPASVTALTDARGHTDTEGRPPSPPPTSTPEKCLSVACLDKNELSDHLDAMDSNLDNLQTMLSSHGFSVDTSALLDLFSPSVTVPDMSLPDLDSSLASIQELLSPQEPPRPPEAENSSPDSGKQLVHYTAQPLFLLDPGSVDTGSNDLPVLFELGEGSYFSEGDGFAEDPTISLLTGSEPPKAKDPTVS
From the text: For screening this sublibrary, a cell-based assay was developed. We opted for a cell-based assay, because a cell-free assay would have had to be a DNA-binding assay. Such an assay would have limited discovery to molecules capable of interfering with the DNA-binding function of HSF1. This was thought to be too narrow a focus, considering that three of the four cavities identified in the HSF1 DNA-binding domain are not near the DNA interaction region. A straightforward cell-based assay, in which a HSF1-responsive gene would be assayed, was considered likely to be over-inclusive. Compounds would be scored as hits that inhibit any factor that is involved in HSF1 activation or prevents HSF1 deactivation. These factors include protein kinases, activators of protein phosphatases, factors affecting HSF1 mRNA stability, HSP90, HDAC6, etc. For developing a more discriminating cell-based assay, advantage was taken of the modular nature of HSF1. […] The cell-based assay developed (see below for the particular format employed) compared transactivation by wild type HSF1 and chimeric HSF1 in cells exposed to an HSF1-activating heat treatment in the presence of a sublibrary compound. A compound was scored as a hit, if it inhibited the activity of wild type HSF1 but not of chimeric HSF1.
The cell-based assay made use of HeLa-derived cell line Z74 that stably contains a gene for chimeric transcription factor LexA-(human) HSF1 under the control of a CMV early promoter, a firefly luciferase (flue) gene driven by a promoter responsive to the latter chimeric transcription factor and a Renilla luciferase (rluc) gene functionally linked to an hsp70b promoter and therefore controlled by endogenous HSF1 (FIG. 1A). As is shown in FIGS. 1B & C, the reporter genes responded similarly to heat dose, i.e., their activation depended on both duration of heat exposure and temperature of the exposure. […] Depletion of HSF1 (and LexA-HSF1) by siRNA supported the notion that this stress regulation is mediated by HSF1 (and LexA-HSF1). Therefore, the Z74 line was well suited for use in a screening assay aimed at discovering molecules that inhibit heat-induced HSF1 activity through interaction with the transcription factor's DNA-binding domain.
The compounds of the afore-mentioned biased sublibrary were screened in cell line Z74 at 12.5 and 25 μM concentrations. Typically, Z74 cultures in 96-well plates were exposed to compound or vehicle for 2 h, heat-treated at 43.0° C. for 30 min, and incubated further for 6 h at 37° C. to allow for accumulation of the luciferases. RLuc and FLuc activities were determined, typically using the Dual-Glo® Luciferase Assay System (Promega Corp., Madison, Wis.), and reading luciferase light counts in a Wallac Microbeta Trilux-1450 Luminometer (PerkinElmer, Waltham, Mass.). IHSF 001 was one of two library compounds that inhibited RLuc expression but not FLuc expression in heat-treated Z74 cells (Table 1; FIG. 2A). Therefore, IHSF 001 is an inhibitor of HSF1 function that specifically acts through the HSF1 DNA-binding domain. […] A corroborating experiment utilized a cell line containing an hsp70b promoter-driven fluc gene. […] IHSF 001 is (E)-ethyl 4-oxo-4-(thiazol-2-ylamino)but-2-enoate. The compound can be obtained from commercial sources (e.g., AKE-PB-90340538, Akos).

HSE DNA-binding activity = target: T2, HSE DNA-binding activity (Homo sapiens, UniProt Q00613); test: EMSA using extracts of heat-treated HeLa cells, in the presence of IHSF; type: biochemical; details: extracts of HeLa cells heat-treated at 43° C. for 30 min; concentrations as high as about 0.5 mM
T2 construct: functionally linked to an hsp70b promoter and therefore controlled by endogenous HSF1; endogenous in cells; host or cells: HeLa cells / HeLa-derived cell line Z74
T2 sequence (Q00613 1-529): T1 sequence (Q00613 1-529)
Experimental: Electrophoretic mobility shift assays (EMSA) using a radiolabeled HSE DNA probe were carried out to assess HSF1 DNA-binding activity in extracts of heat-treated (43° C./30 min) HeLa cells that had been exposed to different concentrations of compounds 058 or 115 (FIG. 3A, top panels). […] HSF1 degradation correlated well with the observed decrease in DNA-binding activity. Therefore, HSF1 degradation provides a sufficient explanation for the reduced HSE DNA-binding activity in cells treated with IHSF 058. […] EMSA were also carried out using extracts of HeLa cells that had been heat-treated at 43° C. for 30 min.

IC50 (HSF1; inhibition of HSF1 activity [RLuc]): 14.7 µM
inhibition at 12.5 µM (HSF1; 12.5 μM IHSF, negative values marked *: compound enhanced rLuc activity, read-out: Inhibition of HSF1 activity at 12.5 μM IHSF [RLuc] (%)): 45%
inhibition at 25 µM (HSF1; 25 μM IHSF, 2 h exposure, 43° C. 30 min, 6 h at 37° C., read-out: Inhibition of HSF1 activity at 25 μM IHSF [RLuc] (%)): 72%
HSE DNA-binding activity (EMSA) in the presence of IHSF (HSE DNA-binding activity): no reduction
Compound: CCOC(=O)/C=C/C(=O)Nc1ncc(-c2ccccc2C)s1 [IHSF 059, (E)-3-(5-o-Tolyl-thiazol-2-ylcarbamoyl)-acrylic acid ethyl ester]
